Test results: ChEMBL document CHEMBL3112406, “Virtual screening and biochemical evaluation to identify new inhibitors of mammalian target of rapamycin (mTOR)” (Bioorg Med Chem Lett, 2014)

Target: Serine/threonine-protein kinase mTOR (Homo sapiens, UniProt P42345)
Assay: Inhibition of mTOR (unknown origin) by KINOMEscan assay

IC50: 54.1 µM
Structure (SMILES): c1ccc(-c2c(-c3ccccc3)n(Cc3ccco3)c3ncnc(NCCCn4ccnc4)c23)cc1
